Source: patent US8530648B2, “Diaza-spiro[5.5]undecanes” (Novartis AG, priority 2009, dated 2013)

Legend:
hOx1R [1] = target: T1, hOx1R (Homo sapiens (Human), UniProt O43613); assay: Calcium accumulation in cells (FLIPR), hOx1R; format: cell-based; details: inhibition of orexin A induced calcium accumulation, Cheng and Prusoff correction
Method in brief: (§1)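 Cells expressing human orexin 1 or 2 receptor, serum-deprived overnight, loaded with Fluo-4-AM (2 μM) plus 0.1 mM probenecid, pH 7.4 HEPES buffer with 1% BSA.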

hOx1R [2] = target: T1, hOx1R; assay: Radioligand binding assay, [3H]-SB649868, hOx1R; details: radioligand [3H]-SB649868, competition
Description: (§2) For crude cell membrane preparations, cells (CHO, Chinese hamster ovary or HEK, human embryonic kidney) expressing human orexin 1 or human orexin 2 receptors, were washed with HEPES (10 mM, pH 7.5), scraped off the culture plates with the same buffer, and centrifuged at 4° C. for 5 min at 2500×g. The cell pellet was either stored at −80° C. or used directly. Before the experiments, cell membranes were re-suspended in binding assay buffer (10 mM HEPES, 0.5% (w/v) bovine serum albumin, pH 7.5) by homogenisation with a Polytron homogeniser at 50 Hz for 20 s. Cell membranes were also used as made available by commercial providers.
(§3) Bound radioactivity was measured, and data were analysed with the program XLFIT or Graphpad Prism. Protein concentration was determined according to the Bradford/BioRad Protein Assay Kit.
(§4) In competition experiments, cell homogenates (150 μl) were incubated in assay buffer (10 mM HEPES, pH 7.5, 0.5% (w/v) bovine serum albumin, 5 mM MgCl2, 1 mM CaCl2, and tween 0.05%) for 1 h at room temperature with about 1 nM of the radioligand [^3H]-SB649868, 66 Ci/mmole, 50 μl), and with various concentrations of compounds of the invention (50 μl) in triplicates; non-specific binding was determined in the presence of almorexant (10 μM).

hOx2R [3] = target: T2, hOx2R (Homo sapiens (Human), UniProt O43614); assay: Radioligand binding assay, [3H]-SB649868, hOx2R; details: radioligand [3H]-SB649868, competition
Description: as §2, §3, §4

hOx2R [4] = target: T2, hOx2R; assay: Calcium accumulation in cells (FLIPR), hOx2R; format: cell-based; details: inhibition of orexin A induced calcium accumulation, Cheng and Prusoff correction
Method in brief: as §1

T1 sequence (O43613 whole entry): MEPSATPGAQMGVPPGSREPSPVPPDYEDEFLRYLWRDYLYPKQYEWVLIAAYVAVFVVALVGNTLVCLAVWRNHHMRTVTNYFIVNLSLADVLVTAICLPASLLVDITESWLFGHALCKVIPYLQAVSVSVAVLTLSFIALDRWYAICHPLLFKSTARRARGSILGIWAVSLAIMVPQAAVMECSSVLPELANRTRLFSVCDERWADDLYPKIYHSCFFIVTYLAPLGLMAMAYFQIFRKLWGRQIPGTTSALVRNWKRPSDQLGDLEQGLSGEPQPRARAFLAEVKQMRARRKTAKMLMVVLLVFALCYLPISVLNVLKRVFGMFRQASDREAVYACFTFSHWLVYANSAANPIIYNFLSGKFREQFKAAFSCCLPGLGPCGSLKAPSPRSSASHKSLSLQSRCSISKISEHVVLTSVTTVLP
T2 sequence (O43614 whole entry): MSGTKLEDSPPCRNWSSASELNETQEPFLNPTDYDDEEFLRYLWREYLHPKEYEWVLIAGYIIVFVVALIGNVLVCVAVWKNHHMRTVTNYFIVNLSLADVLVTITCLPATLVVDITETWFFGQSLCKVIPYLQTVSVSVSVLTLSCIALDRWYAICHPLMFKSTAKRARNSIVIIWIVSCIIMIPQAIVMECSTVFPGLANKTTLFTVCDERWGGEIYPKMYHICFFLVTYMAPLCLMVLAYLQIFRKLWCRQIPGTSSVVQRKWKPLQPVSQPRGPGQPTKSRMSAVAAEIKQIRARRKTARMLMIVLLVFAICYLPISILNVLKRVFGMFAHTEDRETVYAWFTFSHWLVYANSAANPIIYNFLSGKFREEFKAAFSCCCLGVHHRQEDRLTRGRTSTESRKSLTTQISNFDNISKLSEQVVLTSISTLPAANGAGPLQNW

## O=C1CCCC2(CCN(c3cnc4ccccc4n3)CC2)N1Cc1c[nH]c2ccccc12 [Example 43, 1-((1H-indol-3-yl)methyl)-9-(quinoxalin-2-yl)-1,9-diazaspiro[5.5]undecan-2-one]
hOx1R [1]
  Ki: 0.236 µM
hOx1R [2]
  Kd: 0.205 µM
hOx2R [3]
  Kd: 0.196 µM
hOx2R [4]
  Ki: 0.047 µM

## Cn1ccc2c(CN3C(=O)CCCC34CCN(c3cnc5ccccc5n3)CC4)cccc21 [Example 44, 1-((1-methyl-1H-indol-4-yl)methyl)-9-(quinoxalin-2-yl)-1,9-diazaspiro[5.5]undecan-2-one]
hOx1R [1]
  Ki: 0.064 µM
hOx1R [2]
  Kd: 0.056 µM
hOx2R [3]
  Kd: 0.125 µM
hOx2R [4]
  Ki: 0.048 µM

## O=C1N(Cc2cccc(-n3nccn3)c2)CCCC12CCN(c1cnc3ccccc3n1)CC2 [Example 47, 2-(3-(2H-1,2,3-triazol-2-yl)benzyl)-9-(quinoxalin-2-yl)-2,9-diazaspiro[5.5]undecan-1-one]
hOx1R [1]
  Ki: 0.159 µM
hOx1R [2]
  Kd: 0.318 µM
hOx2R [3]
  Kd: 0.034 µM
hOx2R [4]
  Ki: 0.013 µM

## Cc1ccc(-n2nccn2)c(CN2CCCC3(CCN(c4cnc5ccccc5n4)CC3)C2=O)c1 [Example 125, 2-(5-methyl-2-(2H-1,2,3-triazol-2-yl)benzyl)-9-(quinoxalin-2-yl)-2,9-diazaspiro[5.5]undecan-1-one]
hOx1R [1]
  Ki: 2.29 µM
hOx1R [2]
  Kd: 4.99 µM
hOx2R [3]
  Kd: 0.324 µM
hOx2R [4]
  Ki: 0.137 µM

## O=C1N(Cc2c[nH]c3ccccc23)CCCC12CCN(c1cc3nccnc3cn1)CC2 [Example 167, 2-((1H-indol-3-yl)methyl)-9-(pyrido[4,3-b]pyrazin-7-yl)-2,9-diazaspiro[5.5]undecan-1-one]
hOx1R [1]
  Ki: 0.665 µM
hOx1R [2]
  Kd: 1.67 µM
hOx2R [3]
  Kd: 0.152 µM
hOx2R [4]
  Ki: 0.081 µM

## O=C1N(Cc2c[nH]c3ccccc23)CCCC12CCN(c1nc3ccccc3[nH]1)CC2 [Example 152, 2-((1H-indol-3-yl)methyl)-9-(1H-benzo[d]imidazol-2-yl)-2,9-diazaspiro[5.5]undecan-1-one]
hOx1R [1]
  Ki: 1.56 µM
hOx1R [2]
  Kd: 0.939 µM
hOx2R [3]
  Kd: 0.084 µM
hOx2R [4]
  Ki: 0.069 µM

## COc1cccc(-n2cncc2CN2CCCC3(CCN(c4cnc5ccccc5n4)CC3)C2=O)c1 [Example 111, 2-((1-(3-methoxyphenyl)-1H-imidazol-5-yl)methyl)-9-(quinoxalin-2-yl)-2,9-diazaspiro[5.5]undecan-1-one]
hOx1R [1]
  Ki: 1.29 µM
hOx1R [2]
  Kd: 3.82 µM
hOx2R [3]
  Kd: 0.559 µM
hOx2R [4]
  Ki: 0.085 µM

## O=C1N(Cc2cccc(-c3cnccn3)c2)CCCC12CCN(c1cnc3ccccc3n1)CC2 [Example 65, 2-(3-(pyrazin-2-yl)benzyl)-9-(quinoxalin-2-yl)-2,9-diazaspiro[5.5]undecan-1-one]
hOx1R [1]
  Ki: 0.357 µM
hOx1R [2]
  Kd: 1.86 µM
hOx2R [3]
  Kd: 0.623 µM
hOx2R [4]
  Ki: 0.023 µM

## Cn1cc(CN2C(=O)CCCC23CCN(c2cnc4ccccc4n2)CC3)c2cccnc21 [Example 143, 1-((1-methyl-1H-pyrrolo[2,3-b]pyridin-3-yl)methyl)-9-(quinoxalin-2-yl)-1,9-diazaspiro[5.5]undecan-2-one]
hOx1R [1]
  Ki: 0.747 µM
hOx1R [2]
  Kd: 0.307 µM
hOx2R [3]
  Kd: 0.05 µM
hOx2R [4]
  Ki: 0.039 µM

## Cc1noc(-c2ccccc2CN2CCCC3(CCN(c4cnc5ccccc5n4)CC3)C2=O)n1 [Example 39, 2-(2-(3-methyl-1,2,4-oxadiazol-5-yl)benzyl)-9-(quinoxalin-2-yl)-2,9-diazaspiro[5.5]undecan-1-one]
hOx1R [1]
  Ki: 1.42 µM
hOx1R [2]
  Kd: 2.77 µM
hOx2R [3]
  Kd: 0.243 µM
hOx2R [4]
  Ki: 0.025 µM

## Cc1cc(N2CCC3(CCCN(Cc4c[nH]c5ccccc45)C3=O)CC2)nc2ccccc12 [Example 164, 2-((1H-indol-3-yl)methyl)-9-(4-methylquinolin-2-yl)-2,9-diazaspiro[5.5]undecan-1-one]
hOx1R [1]
  Ki: 0.115 µM
hOx1R [2]
  Kd: 0.09 µM
hOx2R [3]
  Kd: 0.012 µM
hOx2R [4]
  Ki: 0.014 µM

## O=C1N(Cc2c[nH]c3ccccc23)CCCC12CCN(c1ccc3ccccc3n1)CC2 [Example 160, 2-((1H-indol-3-yl)methyl)-9-(quinolin-2-yl)-2,9-diazaspiro[5.5]undecan-1-one]
hOx1R [1]
  Ki: 0.571 µM
hOx1R [2]
  Kd: 0.806 µM
hOx2R [3]
  Kd: 0.111 µM
hOx2R [4]
  Ki: 0.068 µM

## O=C1N(Cc2cccc3nonc23)CCCC12CCN(c1cnc3ccccc3n1)CC2 [Example 77, 2-(benzo[c][1,2,5]oxadiazol-4-ylmethyl)-9-(quinoxalin-2-yl)-2,9-diazaspiro[5.5]undecan-1-one]
hOx1R [1]
  Ki: 1.15 µM
hOx1R [2]
  Kd: 2.33 µM
hOx2R [3]
  Kd: 1.47 µM
hOx2R [4]
  Ki: 0.098 µM

## O=C1N(Cc2ccccc2-n2nccn2)CCCC12CCN(c1cnc3ccccc3n1)CC2 [Example 49, 2-(2-(2H-1,2,3-triazol-2-yl)benzyl)-9-(quinoxalin-2-yl)-2,9-diazaspiro[5.5]undecan-1-one]
hOx1R [1]
  Ki: 2.11 µM
hOx1R [2]
  Kd: 3.25 µM
hOx2R [3]
  Kd: 0.115 µM
hOx2R [4]
  Ki: 0.039 µM

## Cc1nc(-c2cccc(CN3CCCC4(CCN(c5cnc6ccccc6n5)CC4)C3=O)c2)no1 [Example 98, 2-(3-(5-methyl-1,2,4-oxadiazol-3-yl)benzyl)-9-(quinoxalin-2-yl)-2,9-diazaspiro[5.5]undecan-1-one]
hOx1R [1]
  Ki: 0.425 µM
hOx1R [2]
  Kd: 0.98 µM
hOx2R [3]
  Kd: 0.223 µM
hOx2R [4]
  Ki: 0.05 µM

## O=C1N(Cc2c[nH]c3ccccc23)CCCC12CCN(c1ncc3ccccc3n1)CC2 [Example 169, 2-((1H-indol-3-yl)methyl)-9-(quinazolin-2-yl)-2,9-diazaspiro[5.5]undecan-1-one]
hOx1R [1]
  Ki: 0.966 µM
hOx1R [2]
  Kd: 0.926 µM
hOx2R [3]
  Kd: 0.123 µM
hOx2R [4]
  Ki: 0.07 µM

## O=C1N(Cc2cccc(-n3cccn3)c2)CCCC12CCN(c1cnc3ccccc3n1)CC2 [Example 60, 2-(3-(1H-pyrazol-1-yl)benzyl)-9-(quinoxalin-2-yl)-2,9-diazaspiro[5.5]undecan-1-one]
hOx1R [1]
  Ki: 0.391 µM
hOx1R [2]
  Kd: 0.728 µM
hOx2R [3]
  Kd: 0.191 µM
hOx2R [4]
  Ki: 0.049 µM

## Cc1cnc(-c2cccc(CN3CCCC4(CCN(c5cnc6ccccc6n5)CC4)C3=O)c2)o1 [Example 147, 2-(3-(5-methyloxazol-2-yl)benzyl)-9-(quinoxalin-2-yl)-2,9-diazaspiro[5.5]undecan-1-one]
hOx1R [1]
  Ki: 0.094 µM
hOx1R [2]
  Kd: 0.228 µM
hOx2R [3]
  Kd: 0.063 µM
hOx2R [4]
  Ki: 0.007 µM

## O=C1N(Cc2c[nH]c3ccccc23)CCCC12CCN(c1nccc3occc13)CC2 [Example 156, 2-((1H-indol-3-yl)methyl)-9-(furo[3,2-c]pyridin-4-yl)-2,9-diazaspiro[5.5]undecan-1-one]
hOx1R [1]
  Ki: 0.623 µM
hOx1R [2]
  Kd: 1.02 µM
hOx2R [3]
  Kd: 0.139 µM
hOx2R [4]
  Ki: 0.023 µM

## O=C1N(Cc2ccccc2-c2ccco2)CCCC12CCN(c1cnc3ccccc3n1)CC2 [Example 150, 2-(2-(furan-2-yl)benzyl)-9-(quinoxalin-2-yl)-2,9-diazaspiro[5.5]undecan-1-one]
hOx1R [1]
  Ki: 0.744 µM
hOx1R [2]
  Kd: 2.1 µM
hOx2R [3]
  Kd: 0.185 µM
hOx2R [4]
  Ki: 0.045 µM

## O=C1N(Cc2n[nH]c3ccccc23)CCCC12CCN(c1cnc3ccccc3n1)CC2 [Example 129, 2-((1H-indazol-3-yl)methyl)-9-(quinoxalin-2-yl)-2,9-diazaspiro[5.5]undecan-1-one]
hOx1R [1]
  Ki: 0.126 µM
hOx1R [2]
  Kd: 0.105 µM
hOx2R [3]
  Kd: 0.025 µM
hOx2R [4]
  Ki: 0.009 µM

## O=C1N(Cc2cccc(-n3ccnn3)c2)CCCC12CCN(c1cnc3ccccc3n1)CC2 [Example 46, 2-(3-(1H-1,2,3-triazol-1-yl)benzyl)-9-(quinoxalin-2-yl)-2,9-diazaspiro[5.5]undecan-1-one]
hOx1R [1]
  Ki: 1.09 µM
hOx1R [2]
  Kd: 1.29 µM
hOx2R [3]
  Kd: 0.473 µM
hOx2R [4]
  Ki: 0.247 µM

## Cc1ccc2oc(N3CCC4(CCCC(=O)N4Cc4cccc5[nH]ccc45)CC3)nc2c1 [Example 140, 1-((1H-indol-4-yl)methyl)-9-(5-methylbenzo[d]oxazol-2-yl)-1,9-diazaspiro[5.5]undecan-2-one]
hOx1R [1]
  Ki: 0.662 µM
hOx1R [2]
  Kd: 1.58 µM
hOx2R [3]
  Kd: 0.379 µM
hOx2R [4]
  Ki: 0.081 µM

## O=C1N(Cc2c[nH]c3ccccc23)CCCC12CCN(c1cnc3ccccc3c1)CC2 [Example 48, 2-((1H-indol-3-yl)methyl)-9-(quinolin-3-yl)-2,9-diazaspiro[5.5]undecan-1-one]
hOx1R [1]
  Ki: 1.04 µM
hOx1R [2]
  Kd: 1.84 µM
hOx2R [3]
  Kd: 0.147 µM
hOx2R [4]
  Ki: 0.032 µM
